Data as given in US9459246B2, “Induced intercellular communication” (Nodality, Inc., priority 2009, dated 2016).
Values joined by “and” are separate entries in the source; they are usually repeats but may differ in a detail not shown here. Identical values can stand only once.

Assays:
[1] = test system: whole blood; assay: SCNP of cytokine-induced JAK/STAT signaling in whole blood of healthy donors (Example 4); format: cell-based, human
Method: Method: Whole blood from 11 healthy donors (20-65 yrs, 7 males, 4 females, 8 Caucasians, 2 Hispanics, 1 East Asian) was stimulated at 37° C. in 96-well plates with a low, medium, and high dose of GM-CSF, IFN-α, IL-27 and IL-6, each added separately, as described in Example 5. For each dose, a stimulation time course was run with 6 time points between 3 and 45 minutes. […] The SCNP assay was performed using a fluorophore-labeled antibody cocktail to simultaneously measure signaling in six distinct cell populations, including: neutrophils, CD20+ B cells, CD3+CD4+T cells, CD3+CD4− T cells (CD8 enriched), CD3-CD20-lymphocytes (NK cell enriched), and CD14+ monocytes. The median fluorescent intensity of phospho (p)-STAT1(Y701), p-STAT3(Y705), and p-STAT5(Y694) were measured in each defined cell population for each experimental condition.

[2] = test system: PBMCs; assay: SCNP of immunomodulator signaling nodes in PBMC subpopulations of 60 healthy donors (Example 16); format: cell-based, human; settings: 15 min
Method: Cryopreserved PBMC samples were thawed at 37° C. and resuspended in RPMI 1% FBS before staining with amine aqua viability dye (Invitrogen, Carlsbad, Calif.). Cells were resuspended in RPMI 10% FBS, aliquoted to 100,000 cells per well of 96-well plates, and rested for 2 h at 37° C. prior to 15 min 37° C. incubation with the following modulators: 1000 IU/ml IFNα (PBL, Piscataqay, N.J.); 250 ng/ml IFNγ, 50 ng/ml IL4, 50 ng/ml IL10, α-IgD 5 m/ml (BD, San Jose, Calif.); 50 ng/ml IL2, 50 ng/ml IL6, 50 ng/ml IL27, CD40L 0.5 μg/ml (R&D, Minneapolis, Minn.); R848 5 μg/ml (Invivogen, San Diego, Calif.); LPS 1 μg/ml, PMA 40 nM (Sigma Aldrich, St. Louis, Mo.). After exposure to modulators, cells were fixed with paraformaldehyde and permeabilized with 100% ice-cold methanol as previously described (5). […]
Flow cytometry data was acquired using FACS DIVA software (BD, San Jose, Calif.) on two LSRII Flow Cytometers (BD, San Jose, Calif.). All flow cytometry data were analyzed with WinList (Verity House Software, Topsham, Me.). […]
Two different metrics are utilized in this study to measure the levels of intracellular signaling proteins in either the unmodulated state or in response to modulation. […] The Equivalent Number of Reference Fluorophores (ERFs), fluorescence measurements calibrated by rainbow calibration particles on each 96-well plate, serve as a basis for all metric calculations (6, 7).

[3] = test system: PBMCs; assay: SCNP of IFN-α signaling in PBMCs from healthy donors (Examples 5 and 15); format: cell-based, human
Method: (§1) Methods: IFN-α-mediated signaling responses were measured by SCNP in PBMC samples from 12 healthy donors. PBMCs were processed for flow cytometry by fixation and permeabilization followed by incubation with fluorochrome-conjugated antibodies that recognize extracellular lineage markers and intracellular signaling molecules. The levels of several phospho-proteins (p-Stat1, p-Stat3, p-Stat4, p-Stat5, p-Stat6, and p-p38) were measured in multiple cell populations (CD14+ monocytes, CD20+ B cells, CD4+ CD3+ T cells, and CD4− CD3+ T cells) at 15 minutes, 1, 2 and 4 hours post IFN-α exposure as described in Example 6.
as §1, with “IFN-α-mediated” for “Methods: IFN-α-mediated”

[4] = test system: AML cells; assay: Cytotoxic and cytostatic impact of drugs on cultured AML patient cells (Example 17, Arm #2); format: cell-based, human; settings: patient #1910-017, 48 hours
Method: This study used peripheral blood or bone marrow samples (n=9), which had been previously ficoll separated and cryopreserved. […] One cryovial per patient was used. Samples were thawed and centrifuged over ficoll to remove dead cells and debris. […] After 2 days the cells were then distributed into wells containing various drugs, wherein the cells were cultured for 48 hours. The cultures were fixed, permeabilized, and stained with a cocktail of antibodies to measure complete cell death, apoptosis, S/G2 phase, M-Phase, and DNA damage. These readouts were also obstained from samples cultured separately with individual growth factors (no drugs) for 4 days.

[5] = test system: AML cells; assay: SCNP of basal and growth-factor modulated signaling in AML patient sample with kinase inhibitors (Example 17, Arm #1); format: cell-based, human; settings: patient #1910-017
From the text: This study used peripheral blood or bone marrow samples (n=9), which had been previously ficoll separated and cryopreserved. Patient characteristics are shown Table 8. One cryovial per patient was used. Samples were thawed and centrifuged over ficoll to remove dead cells and debris.
Samples were split to perform the following: Arm #1 assessed basal and modulated signaling in the JAK/STAT, PI3K/mTor, and MEK/ERK pathways in the presence and absence of specific kinase inhibitors. Kinase inhibitors were added 1 hr before the addition of the signaling stimulus. Signaling was induced by individual addition of stem cell factor, Flt3 ligand, G-CSF, IL-3, or thrombopoietin (TPO) for a short period of time (5-15 min). Cells were then fixed, permeabilized, and stained with a cocktail of cell surface and phospho-specific antibodies to measure signaling in multiple cell types. Signaling data is calculated in each cell type using a fold-change metric comparing each condition to its basal state: example: (stimulated^+/−inhibitor)/(unstimulated). Also, cells with an apoptotic phenotype were excluded from the signaling analysis by gating.

[6] = test system: PBMCs
[7] = test system: PBMCs; assay: SCNP signaling in LPS-treated PBMCs with inhibitors (Example 14, FIGS. 22, 23); settings: LPS plus inhibitor
[8] = test system: peripheral blood mononuclear cells (PBMC); assay: SCNP assay of SAg-modulated PBMC signaling over time, with or without cytokine pathway inhibitors (Examples 10, 11, 13); format: cell-based, human
[9] = test system: PBMCs; format: cell-based, human; settings: PBMC, 24 hours
[10] = test system: monocytes in PBMC; assay: Flow cytometry of intracellular cytokines in SAg-modulated PBMC with inhibitors (Example 12); format: cell-based, human
[11] = test system: PBMCs; assay: SCNP intracellular signaling readouts in PBMCs treated 24 hours with modulator (SAg or LPS) plus inhibitor (Example 9, FIGS. 18-21); format: cell-based, human

## IL-6: cytokine used as modulator
[1]; CD4+ T cells and monocytes
  time of peak p-STAT1 and p-STAT5: 10 to 15 min
  time of peak p-STAT3 levels: 3 min

## IFN-α
[2]; 1000 IU/ml
  pStat activation across immune cell subpopulations: at least one pStat protein was activated in response to IFNα in all of the immune cell subpopulations
[3]; majority of cell types tested
  peak response for activation of p-Stat4, p-Stat6, and p-p38: 1 h
[3]; most of the cell types
  peak response for activation of p-Stat1, p-Stat3, and p-Stat5: 15 min
[1]; all cell subsets
  time of peak activation of all 3 STAT proteins: 10 min

## Nc1ccn([C@@H]2O[C@H](CO)[C@@H](O)[C@@H]2O)c(=O)n1 [AraC]
[4]
  drug induced apoptosis of myeloid cells: resisted apoptosis

## CC(C)C[C@H](NC(=O)[C@H](Cc1ccccc1)NC(=O)c1cnccn1)B(O)O [bortezomib]
[4]
  cell death and cytostasis: induced considerable levels of cell death and cytostasis

## C[C@@H]1CCN(C(=O)CC#N)C[C@@H]1N(C)c1ncnc2[nH]ccc12 [CP-690550]
[5]
  IL-3 signaling: complete inhibition
  TPO signaling: partial inhibition
  high basal level of p-STAT5 signaling: inhibited

## C[C@@H]1CCN(C(=O)CC#N)C[C@@H]1N(C)c1ncnc2[nH]ccc12 [Tofacitinib]
[6]
  inhibition: 102% and 79%
[7]; 2 hours
  p-STAT1 and p-STAT3 induction in lymphocytes: completed abrogated
[7]; later time points
  p-STAT3 in lymphocytes: partially inhibited
[8]
  PI3K pathway activation in lymphocytes: blocked
  STAT induction evoked by SAg modulation: completely abrogated
  overall inhibition of SAg-evoked signaling: broad and potent inhibition of the JAK/STAT pathway and down-stream signaling
  p-STAT5 and PI3K pathway signaling in CD4+ T cells: this inhibition pattern extended to CD4+ T cells
  p-STAT5 and PI3K pathway signaling in CD4− T cells: inhibited
  p-STAT levels in CD4− T cells: restored p-STAT levels to the unmodulated condition
  phosphorylation of STAT1 and STAT5: weakly reduced
[9]; SAg plus inhibitor
  B cell IL-6 production: blocked
  T cell cytokine production (IL-2 and TNF by CD4+ cells): blocked
[9]; inhibitor added
  IL-6 production by monocytes: induced
[9]; monocytes, LPS plus inhibitor
  TNFα production: blocked
[10]
  IL-6 in monocytes at other time points: induced IL-6 at the 2 hour and 24 hour time points
  frequency of monocytes expressing TNFα: 46%
  monocytes expressing IL-6 (IL-6+): 44%
[11]; LPS modulation, FIG. 21
  STAT signaling / STAT phosphorylation: inhibited
[11]; SAg modulation, FIG. 19
  all measured signaling: inhibited all signaling except for monocyte p-STAT6
[11]; SAg modulation, FIG. 20
  lymphocyte signaling: inhibited

## CS(=O)(=O)N1CCN(Cc2cc3nc(-c4cccc5[nH]ncc45)nc(N4CCOCC4)c3s2)CC1 [GDC-0941]
[5]
  SCF induced pAKT: partial inhibition
  SCF induced pS6: partial inhibition

## Cn1cnc2c(F)c(Nc3ccc(Br)cc3Cl)c(C(=O)NOCCO)cc21 [AZD-6244]
[5]
  SCF induced pAKT: no inhibition
  SCF induced pS6: partial inhibition
  SCF-pERK: complete inhibition

## Cn1c(=O)n(-c2ccc(C(C)(C)C#N)cc2)c2c3cc(-c4cnc5ccccc5c4)ccc3ncc21 [BEZ235]
[5]
  SCF induced pAKT: complete inhibition
  SCF induced pS6: partial inhibition

B1: IL-27: cytokine used as modulator (protein, UniProt Q8NEV9 29-243; Q14213 21-229, looked up)
Interleukin-27 subunit alpha: FPRPPGRPQLSLQELRREFTVSLHLARKLLSEVRGQAHRFAESHLPGVNLYLLPLGEQLPDVSLTFQAWRRLSDPERLCFISTTLQPFHALLGGLGTQGRWTNMERMQLWAMRLDLRDLQRHLRFQVLAAGFNLPEEEEEEEEEEEEERKGLLPGALGSALQGPAQVSWPQLLSTYRLLHSLELVLSRAVRELLLLSKAGHSVWPLGFPTLSPQP
Interleukin-27 subunit beta: RKGPPAALTLPRVQCRASRYPIAVDCSWTLPPAPNSTSPVSFIATYRLGMAARGHSWPCLQQTPTSTSCTITDVQLFSMAPYVLNVTAVHPWGSSSSFVPFITEHIIKPDPPEGVRLSPLAERQLQVQWEPPGSWPFPEIFSLKYWIRYKRQGAARFHRVGPIEATSFILRAVRPRARYYVQVAAQDLTDYGELSDWSLPATATMSLGK
[1]; T cell subsets, B cells, and monocytes
  time of peak activation of p-STAT1 and p-STAT3: 30 min

B2: IFNγ: cytokine used as modulator (protein, UniProt P01579 24-161, looked up)
Interferon gamma: QDPYVKEAENLKKYFNAGHSDVADNGTLFLGILKNWKEESDRKIMQSQIVSFYFKLFKNFKDDQSIQKSVETIKEDMNVKFFNSNKKKRDDFEKLTNYSVTDLNVQRKAIHELIQVMAELSPAAKTGKRKRSQMLFRG
[2]; 250 ng/ml
  pStat1 level by cell type: produced the highest level of pStat1 in monocytes, lower levels in B cells, and a much weaker pStat1 response in T cells
